The values below come from US5010084A, “Imidazoquinolone derivatives” (Kyowa Hakko Kogyo Co., Ltd., priority 1989, dated 1991).

pIC50: −log10 of the molar value. Where a name gives a salt, the structure may show the parent alone.

The subject of data set [1] is passively sensitized guinea pigs, experimental asthma. As to the kind of experiment: Effects on experimental asthma. The format is in vivo, guinea pig (male Hartley). To be noted: guinea pig, 50 mg/kg orally, 1 hour before aerosol of 1.5% EWA; diphenhydramine and propranolol pretreated; control 254. On the procedure:
Guinea pigs were passively sensitized as follows. Male Hartley guinea pigs weighing 350 to 500g were intraperitoneally injected with 1 ml of rabbit EWA serum prepared by the method of Eda et al. [Folia pharmacol., Japon, 66, 237 (1970)]. The animals were treated with intraperitoneal injection of diphenhydramine (20 mg/kg) and propranolol (5 mg/kg), 30 minutes before administration of test compounds. 17 hours after the sensitization, the test compounds (50 mg/kg) were orally administrated to sensitized animals. After one hour from the administration of the test compounds, the guinea pigs were placed in plastic observation box and were exposed to an aerosal antigen of 1.5% EWA. The time until the onset of respiratory […] symptom [collapse time (second)] was measured as a result of experimental asthma.

The nature of a further data set: Acute toxicity. To be noted: mouse, in vivo; male dd-mice, po, mortality for seven days. On the procedure:
The compounds were orally administrated (po: 300 mg/kg) to male dd-mice weighing 20 to 25 g. LD50 was determined by observing the mortality for seven days after the administration.

The subject of data set [2] is zig-zag strips of the tracheae (passively sensitized guinea pigs). As to the kind of experiment: Effects on passive Schultz-Dale reaction (broncho-dilatory effects). Particulars: Cavia porcellus; guinea pig trachea contracted with antigen EWA 1 μg/ml, 37° C., cumulative concentration-relaxation curves; read-out: Passive Schultz-Dale reaction (IC50), concentration of 50% relaxation rate. The format is cell-based, guinea pig (male Hartley). As to the method:
Male Hartley guinea pigs weighing 350 to 500 g were passively sensitized by intraperitoneal injection of rabbit anti-egg white albumin (EWA) serum prepared by the method of Eda et al. [Folia pharmacol., Japon 66, 237, (1970)]. After 24 hours, the guinea pigs were stunned and exsanguinated, and then tracheae were removed. The zig-zag strips of the tracheae were prepared by the method of Emmerson and Mackay [J. Pharm. Pharmacol., 31, 798, (1979)]. The strips were suspended in Krebs-Henseleit solution at 37° C. under aeration of a mixed gas of 95% oxygen and 5% carbon dioxide, and equilibrated for one hour. Antigen (EWA) was then introduced in the solution (final concentration; 1 μg/ml), and the contraction was measured by […] (TD-112s, made by Nihon Kohden K.K., Japan) and recorded on a recorder (Type 3066, made by Yokogawa-Hokushin Denki, K.K. Japan). After the contraction curves reached plateau, the compounds were successively added in order to get cumulative concentration-relaxation curves.

The LD50 is the dose expected to kill half of the subjects tested. With `CCCCn1c(=O)c2c(ncn2C)c2ccccc21` [Compound 1, 5-n-Butyl-3-methyl-3H,5H-imidazo[4,5,-c]quinolin-4-one], in data set [1], the “Experimental asthma, collapse time (time until the onset of respiratory distresslike symptom)” value (“Experimental asthma, collapse time” below) stood at 429 s. For the same compound, the median lethal dose (LD50) at 168 h in the data set “Acute toxicity” is more than 200 mg/kg. Moreover, the pIC50 in data set [2] is 5.17. With `CCn1c(=O)c2c(ncn2C)c2ccccc21` [Compound 9, 5-Ethyl-3-methyl-3H,5H-imidazo[4,5,-c]quinolin-4-one], the pIC50 in data set [2] is 5.89. As to `CCCCn1c(=O)c2c(ncn2C(C)C)c2ccccc21` [Compound 4, 5-n-Butyl-3-isopropyl-3H,5H-imidazo[4,5,-c]quinolin-4-one hydrochloride], in “Acute toxicity”, the LD50 at 168 h was more than 300 mg/kg. Also, the pIC50 in data set [2] was 5.43. Turning to `Cn1c(=O)c2[nH]cnc2n(C)c1=O` [Theophylline, reference compound], the “Experimental asthma, collapse time” value in data set [1] amounted to 414 s. For `CCCCn1cnc2c3ccccc3n(CCCC)c(=O)c21` [Compound 5, 3,5-Di-n-Butyl-3H,5H-imidazo [4,5,-c] quinolin-4-one hydrochloride], in “Acute toxicity”, the LD50 at 168 h was more than 300 mg/kg. As for `CCCCn1c(=O)c2c(ncn2CC(=O)OC(C)(C)C)c2ccccc21` [Compound 7, 3-tert-Butoxycarbonylmethyl-5-n-butyl-3H,5H-imidazo[4,5-c]quinolin-4-one], in data set [2], the pIC50 was 6.33. As for `CCCCn1c(=O)c2c(ncn2CC)c2ccccc21.Cl` [Compound 2, 5-n-Butyl-3-ethyl-3H,5H-imidazo[4,5-c]quinolin-4-one hydrochloride], the LD50 at 168 h in the data set “Acute toxicity” is more than 300 mg/kg. In data set [2], the pIC50 is 5.70.

As to `Cn1c(=O)c2[nH]cnc2n(C)c1=O` [Aminophylline, reference compound], the pIC50 in data set [2] is 4.64. On to `CCCCn1c(=O)c2c(ncn2CCC)c2ccccc21.Cl` [Compound 3, 5-n-Butyl-3-n-propyl-3H,5H-imidazo[4,5-c]quinolin-4-one hydrochloride], for which the “Experimental asthma, collapse time” value in data set [1] worked out at 348 s. For the same compound, the 50% lethal dose (LD50) at 168 h in the data set “Acute toxicity” was more than 300 mg/kg. Further, in data set [2], the pIC50 was 5.17. For `CCCCn1c(=O)c2c(ncn2CC(C)=O)c2ccccc21` [Compound 6, 3-Acetonyl-5-n-butyl-3H,5H-imidazo[4,5,-c]quinolin-4-one], the “Experimental asthma, collapse time” value in data set [1] was found to be 530 s. This compound also registered an LD50 at 168 h in the data set “Acute toxicity” of more than 300 mg/kg. Moreover, the pIC50 in data set [2] is 5.10.

`CCCCn1c(=O)c2c(ncn2CC(=O)O)c2ccccc21` [Compound 8, 5-n-Butyl-3-carboxymethyl-3H,5H-imidazo[4,5,-c]quinolin-4-one]: the pIC50 in data set [2] is 5.17.
